In a melting point compilation (Tetko et al.; mined from patent text by program, amines drawn as free bases though some values may be those of a salt) one finds melting point data, which are given here for 88 compounds.

Structures can show the parent of a compound that is named as a salt. Residues, ends and D or L forms follow the SMILES beside them. *: point of attachment. Tfa = O=C(C(F)(F)F)*

As a reminder, the melting point is the temperature of the solid-liquid transition. As for `Fc1cccc(Cl)c1-c1nn(-c2ccccc2Cl)c(=S)o1`, the melting point lay within 112 to 114 °C.

For the compound `CCOC(=O)c1c(C)cc2c(c1C)c(=O)n(-c1ccccc1Cl)c(=O)n2C(=O)O`, the melting point fell in the range of 182 to 183 °C. As for `O=C1CCCc2cc(-c3ccccc3)ccc21`, the figure is 99 to 100 °C; as for `CCOC(=O)c1cn(C2CN(C(c3ccccc3)c3ccccc3)C2)c2cc(F)c(F)cc2c1=O`, 196 to 201 °C. As for `COc1ccc(C(=O)NC(Cc2ccccc2)C(=O)NC(Cc2ccc(O)cc2)C(=O)O)cc1` (stereo not drawn), the figure is 198 to 200 °C; as for `CNC(=O)N1C=CSC1c1sc(SC)c2c1CC(C)(C)CC2=O` (stereo not drawn), 202 to 204 °C; as for `CCCCCC1CCc2c3c(c(F)c(F)c2O1)OC(C)C3` (stereo not drawn), 76 °C. Consider `CCNC(=O)CC1CCN(Cc2cnc3c(C)c(NC(=O)c4ccc(-c5ccc(F)cc5)cc4)ccc3c2)CC1`, for which the melting point fell in the range of 243 to 245 °C. As for `CN(c1ccc(N)cc1)c1nc(=O)c2cccnc2s1`, the figure is 250 °C.

In turn, `ClC1=Nc2cc(Cl)ccc2Oc2cscc21` displayed a melting point of 180 to 182 °C. In the case of `Cc1nc(N)ccc1-c1ccccc1` it was 110 to 113 °C; in that of `COCCNS(=O)(=O)CC1CC(C)(C)Oc2ccc(OCCO)cc21` (stereo not drawn), 61 to 63 °C. Consider `COc1cc(O)c2c(c1O)CC(C)=C(C)C2`, for which the melting point was in the range of 200 to 201 °C. In the case of `CC1(C)OC(=O)Nc2ccc(-c3cccc(CC#N)n3)cc21` it was 210 to 212 °C; in that of `CC#CNC(=O)NC(=NC(=O)NCCCCCCCC)SC`, 123 to 125 °C; in that of `CC(C)[C@H](NC(=O)N(C)Cc1ccccn1)C(=O)O`, 145 °C. In the case of `Cc1ccc(-c2ccc(S(C)(=O)=O)c(F)c2)n1-c1ccc(-c2ccoc2)cc1`, the melting point lay in the range of 147 to 150 °C. Take `Cc1ccnc(C(=O)c2[nH]c3ccc(Cl)cc3c2CC(=O)O)c1C`: the melting point lay in the range of 236 to 237 °C. As for `CCn1cc(-c2ccccc2)c(=O)c(-c2cccc(C(F)(F)F)c2)c1`, the figure is 98 to 100 °C.

Turning to `COc1cc(C[NH+]([O-])C(=O)C(F)(F)F)ccn1` (stereo not drawn), the melting point was in the range of 176 to 178 °C. As for `CCOC(=O)c1cn(C2CC2)c2occc2c1=O`, the figure is 200 to 201 °C; as for `CC(C)(C)CC(C)(C)C(CCC(=O)O)CC(=O)O` (stereo not drawn), 135 to 137 °C; as for `Nc1ccc2c(=O)n(-c3ccccc3)c(=O)n(-c3ccccc3)c2n1`, 162 to 163 °C. As for `COCc1cc2c(s1)CCCc1cc(=O)n(-c3ccc(Cl)cc3)nc1-2`, the figure is 135 to 137 °C. As for `O=C1NCCN1C(c1ccccc1)c1ccccc1`, the figure is 200 to 202 °C. In the case of `C=CCOc1cn(C)c2cc(F)ccc2c1=O`, the melting point was 158 to 159 °C. In the case of `CC1(C)OC(=O)Nc2cc(-c3cccc(Cl)c3)sc21` it was 123 to 125 °C; in that of `CSC(=CC(=O)C(F)(F)F)NCc1ccc(Cl)nc1`, 112 °C; in that of `CCOC(=O)C1C(=O)C=C(c2ccc(OCC(=O)O)c(Cl)c2Cl)CC1c1ccccc1` (stereo not drawn), 91 °C. On to `Nn1cc(C(=O)O)c(=O)c2cc3c(cc21)OCO3`, for which the melting point was in the range of 309 to 313 °C.

As to `N#CC(C(=O)Nc1ccccc1)C(=O)c1nn(-c2ccccc2)c2c1CSc1ccc(C(=O)NCC(=O)O)cc1-2` (stereo not drawn), the melting point was 244 to 250 °C. As for `CCOC(=O)C1C(C=C(Br)Br)C1(C)C` (stereo not drawn), the figure is 110 °C.

Compound `Cc1coc(-c2ccc(-c3ccccc3S(=O)(=O)Nc3onc(C)c3C)cc2)n1` yielded a melting point of 85 to 95 °C. In the case of `Cc1c(COC(=O)N(c2ccccc2)c2ccccc2)cccc1OCC(=O)O` it was 180 to 181 °C. In the case of `COc1ccc(N2CCN(c3ccc(S(=O)(=O)N[C@@H](Cc4ccccc4)C(=O)O)cc3)CC2)cc1` it was 203 to 205 °C; in that of `CNc1ccccc1C(=O)N1Cc2ccccc2C(=O)N1`, 199 to 202 °C. As to `CC1(C)CC(NC(=O)c2ccc(-c3cc4cc(Cl)c(Cl)cc4[nH]3)c(OCc3ccccc3)c2)CC(C)(C)N1`, the melting point is 220 °C. In the case of `COc1c(C)cnc(Cn2cc(C#CCCCN3CCN(C)CC3)c3c(Cl)nc(N)nc32)c1C` it was 160 to 162 °C; in that of `CCOC(=O)C=Cc1ccc(C(=O)c2ccc3c(c2)C2(C)C4(C)CCC(C4)C2(C)O3)cc1` (stereo not drawn), 115 to 116 °C. In the case of `Cc1oc(C2CCCCC2)nc1CC(=O)O` it was 102 to 103 °C; in that of `O=C(O)Cc1ccccc1Oc1ccc(C(F)(F)F)cc1NS(=O)(=O)c1cc(C(F)(F)F)cc(C(F)(F)F)c1`, 165 to 166 °C. As for `Cc1cn2ccc(N)c(I)c2n1`, the figure is 185 °C. `COCN1C(=O)N(c2ccc(C#N)c(OC)c2)C(=O)C1(C)c1ccc(O)cc1` (stereo not drawn): the melting point is 141 °C.

On to `CCCC(=O)N[C@H]1CC[C@H](CCN2CCN(c3nccc4c3CCO4)CC2)CC1`, for which the melting point was found to be 191 °C. As for `CCCc1c(OCCCOc2cccnc2CCC(=O)OC)ccc(C(C)=O)c1O`, the figure is 85 to 87 °C; as for `COc1ccc(C(=O)Nc2ccccc2)cc1NC(=S)Nc1ccc(F)cc1`, 182 to 183 °C; as for `CCc1nc2ccc(Cl)cc2c(=O)n1CCCn1ccnc1`, 147 to 149 °C.

Consider `Cc1cc(=O)c2ccc(OCCCN3CCC(NC(=O)Cc4ccccc4)CC3)cc2o1`, for which the melting point lay in the range of 172 to 173 °C. As for `CCC(C)(C)NC(Nc1ccc2c(c1)OCO2)=C(C#N)S(=O)(=O)c1ccc(Cl)cc1`, the figure is 169 to 170 °C; as for `CNC(=O)c1ccccc1Nc1nc(Nc2cccc3c2N(C)CCN(C)C3=O)ncc1Cl`, 243 to 244 °C. As for `O=C(Nc1cccc2[nH]ccc12)c1ccccc1OCCN1CCCCC1`, the figure is 154 °C; as for `CC(C)(C)CC(=Cc1ccc(Cl)cc1)Cn1cncn1`, 81 to 84 °C. As for `CCOC(CCn1c(-c2ccc(F)cc2)c(-c2ccccc2)c(C(=O)Nc2ccccc2)c1C(C)C)OCC`, the figure is 125 to 128 °C; as for `COc1ccc(C(=O)c2ccccc2N)cn1`, 60 to 62 °C; as for `CCC(=O)Nc1nc(-c2cc(C)cc(C)c2)c(-c2ccncc2)s1`, 291 to 293 °C. The compound `CC(C)C(=O)N[C@@H](CSC(=O)C(C)(C)C)C(=O)NCCSC(=O)c1ccccc1` displayed a melting point of 112 to 114 °C. In turn, `CC(C)OC(=O)COc1ccc(C(=O)CN2CCN(c3ccncc3)CC2)cc1` gave a melting point of 64 to 66 °C. In the case of `O=C(Oc1cc(F)ccc1F)c1cc2cc(CCl)ccc2oc1=O` it was 137 to 140 °C; in that of `Cc1nc(CCO)c2c(n1)N(N)C(=O)C(C)(C)O2`, 168 to 170 °C. On to `COC(=O)C(OC)C(=O)Nc1cc(Cl)cc(Cl)c1` (stereo not drawn), for which the melting point was in the range of 116 to 118 °C.

`CN(C)C(=O)Nc1ccc(Oc2ccc3sncc3c2)c(C(F)(F)F)c1` registered a melting point of 188 °C. In the case of `COc1cc(OC)nc(C2OC(=O)c3c(-c4cccs4)ccnc32)n1` (stereo not drawn) it was 120 to 123 °C; in that of `CC(=O)Nc1cc(C(=O)NNC(=O)c2occ(-c3ccccc3)c2-c2ccccc2)ccc1O`, 233 to 235 °C; in that of `COC(=O)C(Cc1ccccc1)NC(=O)C(CC(=O)O)NC(=O)C(F)(F)F` (stereo not drawn) (Tfa-Asp-Phe-OMe; configuration not given here), 150 to 151 °C. For `OCC1OC(n2cnc3c(Nc4ccccc4)cc(Cl)nc32)C(O)C1O` (stereo not drawn), the melting point was in the range of 157 to 160 °C. In the case of `CCCCCC(=O)c1c(C)n(C(=O)OC)c(=O)n1C(=O)OC` it was 84 to 86 °C; in that of `Cc1[nH]c(=O)ccc1C(=O)c1cccs1`, 227 to 228 °C. In the case of `Cc1cc(C#N)cc(C(=O)c2[nH]c(=O)[nH]c(=O)c2C(C)(C)C)c1` it was 270 to 271 °C; in that of `Cc1ncc(CSC(=O)c2cccc(C(=O)SCc3cnc(C)c4c3COC(C)(C)O4)c2)c2c1OC(C)(C)OC2`, 125 to 127 °C; in that of `COC(=O)C(CCCCNC(=O)c1ccc(NC(=O)OCc2ccccc2)cc1)n1c2ccccc2c2ccccc21` (stereo not drawn), 87 to 88 °C. In the case of `CCC(=O)c1cc(C#N)c(=O)[nH]c1CC` it was 243 to 245 °C; in that of `O=C(Cc1ccccc1)NC1CN(C(C(=O)OCc2ccccc2)c2ccccc2)C1=O` (stereo not drawn), 96 to 98 °C; in that of `O=C(O)c1cc(Cl)ccc1C(O)=NCc1ccccc1`, 117 to 119 °C. The compound `CCOC(=O)c1ccc(NC(=O)/C=C/c2cnn(C)c2-c2ccc(F)cc2)cc1` showed a melting point of 202 to 203 °C. As for `CCNC(=N)N(C(=N)NCC)c1cc(C(C)(C)C)c2c(c1)C(C)(C)CO2`, the figure is > 290 °C; as for `CCN(CC)C(=O)c1[nH]c2ccccc2c1CN(Cc1cc(C(F)(F)F)cc(C(F)(F)F)c1)c1nnn(C)n1`, 98 °C; as for `CC1(C)[C@@H](CNC(=O)c2ccccc2F)CC[C@@]1(C)NCC(=O)N1C[C@@H](F)C[C@H]1C#N`, 123 to 127 °C. In the case of `Cc1cccc(-c2ccc(NC(=O)Nc3ccc(Oc4cc(N)ncn4)cc3)cc2C(F)(F)F)n1` it was 130 to 133 °C. As for `CCc1cncnc1O`, the figure is 95 to 97 °C; as for `O=c1c2cc(Cl)ccc2nc(C(S)c2ncnc3[nH]cnc23)n1-c1ccccc1Cl` (stereo not drawn), 237 to 238 °C.

The compound `CC(C)NS(=O)(=O)Cc1ccc([N+](=O)[O-])cc1` showed a melting point of 146 to 147 °C. `ClC1c2ccccc2-c2ccccc21` showed a melting point of 87 to 89 °C.

As to `COC(=O)C=CC1=CC2=CNC=C3CC(N(C)C)C(=C23)CO1` (stereo not drawn), the melting point was in the range of 168 to 170 °C. The compound `C=CC(O)c1c(C(C)C)nc(C(C)C)c(CCCCC)c1-c1ccc(F)cc1` (stereo not drawn) registered a melting point of 83 to 85 °C. In the case of `Cc1cc(-c2nc3ccccc3c(=O)n2-c2ccc(C(F)(F)F)cc2)cc(C)c1OCCO` it was 160 to 161 °C; in that of `O=c1nc(C2CCCCC2)c2cc(Cl)ccc2[nH]1`, 270 °C.

`O=C1COCc2ccccc2N1` came in with a melting point of 160 to 165 °C. The compound `O=C1NCCc2c(-c3ccc(F)c(Cl)c3)[nH]c3cccc1c23` yielded a melting point of 234 to 235 °C.
